Measured values from US20220324835A1 (Nurix Therapeutics, Inc., priority 2018, published 2022).
Like-named read-outs stand apart in the source and are kept apart here.

Tested on: primary human total T-cells
Experiment: T-cell activation assessed by cytokine secretion (GM-CSF, IFNγ, TNFα)
Assay type: cell-based
Source text: Peripheral blood mononuclear cells (PBMC) were obtained either: 1) by using Ficoll-Paque™ (GE Healthcare) for separation of peripheral blood hematopoietic cells from buffy coats of healthy human donors; or 2) directly from FeukoPak donations. Total human primary T-cells were isolated from the PMBCs utilizing negative selection with commercial kits following the manufacturer's protocol (Miltenyi Catalog #130-096-535 (i.e., cocktail of antibodies against surface markers CD14, CD15, CD16, CD19, CD34, CD36, CD56, CD123 and CD235a are incubated with the PBMCs before passing the samples by magnetic beads for removal of cells expressing those surface markers) or StemCells Catalog #17951) to yield >95% CD3+ cells as assessed by flow cytometry. For measurement of cell proliferation, cells were labeled with Cell Trace Violet (Invitrogen) following manufacturer's protocol prior to activation by stimulation with anti-CD3 antibody alone or in combination with anti-CD28 antibody. The Cbl-b inhibitor was added to 1×10^5 cells per well at multiple concentrations (e.g., 10 μM, 1.11 μM, or 0.123 μM) with a final DMSO concentration of <0.1%. The plate was incubated for one hour at 37° C. in 5% CO2. Following incubation with the Cbl-b inhibitor, primary human total T-cells were stimulated with either plate bound anti-CD3 antibody (OKT3) alone or plate bound anti-CD3 antibody (OKT3) with soluble anti-CD28 antibody (28.2) (Life Technologies). To prepare plates with plate bound anti-CD3 antibody (OKT3), 96-well round bottom tissue culture plates were coated with 100 μl of anti-CD3 antibody (OKT3) at 10 μg/mL for 4 hours at 37° C. 5% CO2 in phosphate buffered saline (PBS). The plates were washed with PBS prior to adding the cells with or without soluble anti-CD28 antibody (28.2) to each well at a final concentration of 5 μg/mL. Cells were stimulated for 48 hours prior to harvesting the cell free supernatant and staining the cell population for surface marker assessment by flow cytometry. Supernatants were analyzed for cytokine secretion (e.g., GM-CSF, IFNγ and TNFα) by ELISA (R&D Systems, Peprotech or Life Technologies) or Luminex multiplex kits (Procarta Life Technologies) following manufacturer's protocol. Cells were stained with anti-CD69 (BD Biosciences) to assess levels of surface markers of activation. Proliferation was measured by flow cytometry and data was analyzed with FlowJo v7.6.5 or v10. Readouts were reported as fold change over baseline. In some embodiments, baseline was the measurement obtained from total human T-cells stimulated with anti-CD3 antibody alone, wherein the cells were not incubated with a Cbl-b inhibitor. In some embodiments, baseline was the measurement obtained from total human T-cells stimulated with anti-CD3 antibody and anti-CD28 antibody, where the cells were not incubated with a Cbl-b inhibitor.
Cbl-b inhibitors were tested to determine their ability to induce or enhance secretion of cytokines from T-cells (e.g., GM-CSF, IFNγ and TNFα) and/or surface expression of cell surface markers on T-cells (e.g., CD69) that is indicative of T-cell activation. Cbl-b inhibitors were also tested to determine their ability to induce or enhance T-cell proliferation. Cbl-b inhibitors were tested for their effects on T-cell activation in the presence of costimulation and where conditions were suboptimal for priming.
Readouts for T-cell activation were reported as fold change over baseline. Baseline for this study was the measurement obtained from total human T-cells stimulated with anti-CD3 antibody alone or anti-CD3 antibody in combination with soluble anti-CD28 antibody, where the cells were not incubated with a Cbl-b inhibitor. For T-cells stimulated with anti-CD3/anti-CD28 or with anti-CD3 alone changes greater than 1,2-fold over baseline for % positive CD69 staining and greater than 2-fold over baseline for % total proliferating cells were considered a significant and positive response (Table 4a). […]

[1] = CD3/CD28 stimulation, read-out: GM-CSF secretion
[2] = CD3/CD28 stimulation, read-out: IFNγ secretion
[3] = CD3/CD28 stimulation, read-out: TNFα secretion
[4] = CD3 alone stimulation, read-out: GM-CSF secretion
[5] = CD3 alone stimulation, read-out: IFNγ secretion
[6] = CD3 alone stimulation, read-out: TNFα secretion

Structure (SMILES) | fold induction at 1.11 µM [1] | fold induction at 1.11 µM [2] | fold induction at 1.11 µM [3] | fold induction at 10 µM [1] | fold induction at 10 µM [2] | fold induction at 10 µM [3] | fold induction at 1.11 µM [4] | fold induction at 1.11 µM [5] | fold induction at 1.11 µM [6] | fold induction at 10 µM [4] | fold induction at 10 µM [5] | fold induction at 10 µM [6]
C[C@H](Cc1nncn1C)c1cccc(N2Cc3c(cc(CN4CC(C)(O)C4)cc3C(F)(F)F)C2=O)c1 [Compound 397] | 2.01 to 4 | 2.01 to 3 | 2.01 to 4 | > 4 | > 4 | 2.01 to 4 | 2.01 to 4 | < 2 | 1.51 to 2 | 2.01 to 4 | < 2 | 1.51 to 2
C[C@H](Cc1nncn1C)c1cccc(NC(=O)c2n[nH]c3c2CCC3)c1 [Compound 313, (R)-N-(3-(1-(4-Methyl-4H-1,2,4-triazol-3-yl)propan-2-yl)phenyl)-1,4,5,6-tetrahydrocyclopenta[c]pyrazole-3-carboxamide] | ≤ 1.5 | < 2 | ≤ 1.5 | 2.01 to 4 | 2.01 to 3 | 2.01 to 4 | ≤ 1.5 | 2.01 to 3 | ≤ 1.5 | 1.51 to 2 | < 2 | ≤ 1.5
C[C@H](Cc1nncn1C)c1cccc(N2Cc3c(cc(CN4CC[C@](C)(O)C4)cc3C(F)(F)F)C2=O)c1 [Compound 398, 6-(((S)-3-hydroxy-3-methylpyrrolidin-1-yl)methyl)-2-(3-((R)-1-(4-methyl-4H-1,2,4-triazol-3-yl)propan-2-yl)phenyl)-4-(trifluoromethyl)isoindolin-1-one] | 2.01 to 4 | 3.01 to 4 | 2.01 to 4 | > 4 | > 4 | 2.01 to 4 | 2.01 to 4 | < 2 | ≤ 1.5 | > 4 | < 2 | 2.01 to 4
Cn1cnnc1CC1(c2cccc(N3Cc4c(cc(CN5CC[C@H](C#N)C5)cc4C(F)(F)F)C3=O)c2)COC1 [Compound 422, (S)-1-((2-(3-(3-((4-methyl-4H-1,2,4-triazol-3-yl)methyl)oxetan-3-yl)phenyl)-3-oxo-7-(trifluoromethyl)isoindolin-5-yl)methyl)pyrrolidine-3-carbonitrile] | 2.01 to 4 | 3.01 to 4 | 2.01 to 4 | > 4 | > 4 | 2.01 to 4 | 2.01 to 4 | < 2 | ≤ 1.5 | 2.01 to 4 | 3.01 to 4 | 1.51 to 2
Cc1cc(C(=O)Nc2cccc([C@H](C)Cc3nncn3C)c2)nc(C2CC2)n1 [Compound 195, (R)-2-cyclopropyl-6-methyl-N-(3-(1-(4-methyl-4H-1,2,4-triazol-3-yl)propan-2-yl)phenyl)pyrimidine-4-carboxamide] | > 4 | 2.01 to 3 | 2.01 to 4 | > 4 | > 4 | > 4 | 2.01 to 4 | 2.01 to 3 | 1.51 to 2 | 2.01 to 4 | > 4 | 1.51 to 2
C[C@H](Cc1nncn1C)c1cccc(NC(=O)c2cccc(C(F)(F)F)n2)c1 [Compound 183a, (R)-N-(3-(1-(4-methyl-4H-1,2,4-triazol-3-yl)propan-2-yl)phenyl)-6-(trifluoromethyl)picolinamide] | 2.01 to 4 | 2.01 to 3 | 2.01 to 4 | > 4 | > 4 | 2.01 to 4 | 1.51 to 2 | 2.01 to 3 | ≤ 1.5 | 2.01 to 4 | > 4 | 1.51 to 2
C[C@H](Cc1nncn1C)c1cccc(NC(=O)c2cc3cc(N4CCNCC4)ccc3cn2)c1 [Compound 472, N-{3-[(2R)-1-(4-methyl-4H-1,2,4-triazol-3-yl)propan-2-yl]phenyl}-6-(piperazin-1-yl)isoquinoline-3-carboxamide] | 1.51 to 2 | < 2 | 1.51 to 2 | 2.01 to 4 | < 2 | 1.51 to 2 | 1.51 to 2 | < 2 | ≤ 1.5 | 1.51 to 2 | < 2 | ≤ 1.5
C[C@H](Cc1nncn1C)c1cccc(N2Cc3c(cc(CN4CC[C@H](F)C4)cc3C(F)(F)F)C2=O)c1 [Compound 399, 6-(((S)-3-fluoropyrrolidin-1-yl)methyl)-2-(3-((R)-1-(4-methyl-4H-1,2,4-triazol-3-yl)propan-2-yl)phenyl)-4-(trifluoromethyl)isoindolin-1-one] | > 4 | > 4 | 2.01 to 4 | > 4 | > 4 | 2.01 to 4 | 2.01 to 4 | 3.01 to 4 | 2.01 to 4 | > 4 | > 4 | 1.51 to 2
Cn1cnnc1CC1(c2cccc(NC(=O)c3nc4c(C(F)(F)F)cccc4[nH]3)c2)COC1 [Compound 335, N-(3-{3-[(4-methyl-1,2,4-triazol-3-yl)methyl]oxetan-3-yl}phenyl)-4-(trifluoromethyl)-1H-1,3-benzodiazole-2-carboxamide] | 1.51 to 2 | > 4 | 1.51 to 2 | > 4 | 2.01 to 3 | 2.01 to 4 | ≤ 1.5 | < 2 | 1.51 to 2 | 2.01 to 4 | 2.01 to 3 | 1.51 to 2
Cn1cnnc1C(F)(F)[C@](C)(F)c1cccc(N2Cc3c(cc(CN4CC[C@@H](F)C4)cc3C(F)(F)F)C2=O)c1 [Compound 450] | 2.01 to 4 | 2.01 to 3 | 2.01 to 4 | > 4 | > 4 | 2.01 to 4 | 1.51 to 2 | < 2 | 1.51 to 2 | 2.01 to 4 | < 2 | 1.51 to 2
